Measurements: patent US11214594B2, “Antimicrobial peptide having synergistic antibacterial effect with antibiotics on multidrug resistant bacteria, and use thereof” (priority 2016, dated 2022)
Converted amounts (≈) assume the structure as drawn. Like-named read-outs stand apart in the source and are kept apart here. Where a SMILES comes first, the peptide text is derived from it.

Key:
E. coli [1] = type: cell-based, Escherichia coli; details: E. coli
Method in brief: (§1)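 Antibiotic MIC came from antibiotic dilutions added to bacteria (2×10^6 CFU/ml, MH medium) already combined with peptide serially diluted 2:1 from its own MIC. Swapping the roles of the two agents gave the peptide MIC.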

MDREC 1229 [2] = type: cell-based, Escherichia coli
Method in brief: as §1

A. baumannii [3] = assay: MIC of antibiotic during combined treatment with antimicrobial peptide; type: cell-based, Acinetobacter baumannii; details: for Antibiotic MIC, Erythromycin / Antibiotic MIC, Linezolid / Antibiotic MIC, Vancomycin: A. baumannii
Method in brief: (§2)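 MIC values for mixed peptide plus antibiotic solutions were measured in MH medium.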

S. epidermidis = assay: microbe, parasite or virus in culture; type: cell-based, Staphylococcus epidermidis
Method in brief: (§3)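 MIC read-out = lowest peptide level with no bacterial proliferation. Strains diluted in MH medium to 2×10^6 CFU; peptide twofold serial dilutions in MH added 1:1 in microtiter wells.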

E. coli [4] = assay: microbe, parasite or virus in culture; type: cell-based, Escherichia coli; details: 16 h
Method in brief: as §3

MDREC 1229 [5] = assay: microbe, parasite or virus in culture; type: cell-based, Escherichia coli
Method in brief: as §3

MDRST 8009 = type: cell-based, Salmonella typhimurium; details: agent alone
Method in brief: as §3

A. baumannii [6] = assay: microbe, parasite or virus in culture; type: cell-based, Acinetobacter baumannii
Method in brief: as §3

MDRAB 12035 [7] = assay: microbe, parasite or virus in culture; type: cell-based, Acinetobacter baumannii
Method in brief: as §3

E. coli [8] = assay: MIC of antibiotic during combined treatment with antimicrobial peptide; type: cell-based, Escherichia coli; details: for Antibiotic MIC, Erythromycin / Antibiotic MIC, Linezolid / Antibiotic MIC, Vancomycin: E. coli
Method in brief: as §2

P. aeruginosa = assay: microbe, parasite or virus in culture; type: cell-based, Pseudomonas aeruginosa
Method in brief: as §3

A. baumannii [9] = assay: MIC of antimicrobial peptide during combined treatment with antibiotic; type: cell-based, Acinetobacter baumannii
Method in brief: as §1

MDRAB 12035 [10] = assay: as above; type: cell-based, Acinetobacter baumannii
Method in brief: as §1

B. subtilis = assay: microbe, parasite or virus in culture; type: cell-based, Bacillus subtilis
Method in brief: as §3

S. aureus = assay: microbe, parasite or virus in culture; type: cell-based, Staphylococcus aureus
Method in brief: as §3

[11] = linezolid 64 μg/ml (Conc./MIC 1/8)
[12] = linezolid 512 μg/ml (Conc./MIC 1)
[13] = vancomycin 512 μg/ml (Conc./MIC 1/2)
[14] = vancomycin 1024 μg/ml (Conc./MIC 1)
[15] = combined with peptide at 1 μg/ml
[16] = combined with peptide at 2 μg/ml
[17] = combined with peptide at 4 μg/ml
[18] = combined with peptide at 6 μg/ml
[19] = combined with peptide at 8 μg/ml
[20] = combined with peptide at 16 μg/ml
[21] = combined with peptide at 32 μg/ml
[22] = combined with peptide at 64 μg/ml
[23] = erythromycin 4 μg/ml (Conc./MIC 1/8)
[24] = erythromycin 8 μg/ml (Conc./MIC 1/4)
[25] = erythromycin 16 μg/ml (Conc./MIC 1/2)
[26] = erythromycin 32 μg/ml (Conc./MIC 1)

Question: What does the source list for `CC[C@H](C)[C@H](NC(=O)[C@H](CCCCN)NC(=O)[C@H](Cc1c[nH]c2ccccc12)NC(=O)[C@@H](N)CCCNC(=N)N)C(=O)N[C@@H](Cc1ccccc1)C(=O)N[C@@H](CCCCN)C(=O)N[C@@H](CCCCN)C(=O)N[C@H](C(=O)N1CCC[C@H]1C(=O)N[C@@H](CCCCN)C(=O)N[C@@H](CC(C)C)C(=O)N[C@@H](CC(C)C)C(=O)N[C@@H](Cc1c[nH]cn1)C(=O)N[C@@H](CCC(=O)O)C(=O)N[C@@H](C)C(=O)N[C@@H](CCCCN)C(=O)N[C@@H](CCCCN)C(=O)N[C@@H](Cc1c[nH]c2ccccc12)C(N)=O)[C@@H](C)CC` [PapMA-13, RWK IFK KIP KLL HEA KKW-NH2] (H-RWKIFKKIPKLLHEAKKW-NH2; N-terminus assumed)?
Answer: Peptide MIC (E. coli [1]; with Erythromycin […] (Conc./MIC 1)): 0 µg/mL; Peptide MIC (E. coli [1]; with Linezolid […] (Conc./MIC 1)): 0 µg/mL; Peptide MIC (E. coli [1]; with Vancomycin 1024 μg/ml (Conc./MIC 1)): 0 µg/mL; Peptide MIC during treatment with antibiotic (MDREC 1229 [2]; erythromycin 32 μg/ml (Conc./MIC 1/8)): 2 µg/mL; Peptide MIC during treatment with antibiotic (MDREC 1229 [2]; erythromycin 64 μg/ml (Conc./MIC 1/4)): 2 µg/mL; Peptide MIC during treatment with antibiotic (MDREC 1229 [2]; erythromycin […] (Conc./MIC 1)): 0 µg/mL; Peptide MIC during treatment with antibiotic (MDREC 1229 [2]; erythromycin […] (Conc./MIC 1/2)): 2 µg/mL; Peptide MIC during treatment with antibiotic (MDREC 1229 [2]; [11]): 4 µg/mL; Peptide MIC during treatment with antibiotic (MDREC 1229 [2]; [12]): 0 µg/mL; Peptide MIC during treatment with antibiotic (MDREC 1229 [2]; linezolid […] (Conc./MIC 1/2)): 2 µg/mL; Peptide MIC during treatment with antibiotic (MDREC 1229 [2]; linezolid […] (Conc./MIC 1/4)): 2 µg/mL; Peptide MIC during treatment with antibiotic (MDREC 1229 [2]; [13]): 2 µg/mL; Peptide MIC during treatment with antibiotic (MDREC 1229 [2]; [14]): 1 µg/mL; Peptide MIC during treatment with antibiotic (MDREC 1229 [2]; vancomycin […] (Conc./MIC 1/4)): 4 µg/mL; Peptide MIC during treatment with antibiotic (MDREC 1229 [2]; vancomycin […] (Conc./MIC 1/8)): 8 µg/mL; Synergistic effect of antibacterial activity with existing antibiotics compared with PapMA-1 (A. baumannii [3]; A. baumannii and MDRAB 12035): higher level than the PapMA-1 peptide; Antibiotic MIC, Erythromycin (A. baumannii [3]; [15]): 16 µg/mL; Antibiotic MIC, Linezolid (A. baumannii [3]; [15]): 64 µg/mL; Antibiotic MIC, Vancomycin (A. baumannii [3]; [15]): 128 µg/mL; Antibiotic MIC, Erythromycin (A. baumannii [3]; [16]): 8 µg/mL; Antibiotic MIC, Linezolid (A. baumannii [3]; [16]): 32 µg/mL; Antibiotic MIC, Vancomycin (A. baumannii [3]; [16]): 64 µg/mL; Antibiotic MIC, Erythromycin (A. baumannii [3]; [17]): 1 µg/mL; Antibiotic MIC, Linezolid (A. baumannii [3]; [17]): 4 µg/mL; Antibiotic MIC, Vancomycin (A. baumannii [3]; [17]): 4 µg/mL; Antibiotic MIC, Erythromycin (A. baumannii [3]; [18]): 0.5 µg/mL; Antibiotic MIC, Linezolid (A. baumannii [3]; [18]): 2 µg/mL; Antibiotic MIC, Vancomycin (A. baumannii [3]; [18]): 1 µg/mL; Antibiotic MIC, Erythromycin (A. baumannii [3]; [19]): 0.125 µg/mL; Antibiotic MIC, Linezolid (A. baumannii [3]; [19]): 1 µg/mL; Antibiotic MIC, Vancomycin (A. baumannii [3]; [19]): 0.5 µg/mL; Antibiotic MIC, Erythromycin (A. baumannii [3]; [20]): 0 µg/mL; Antibiotic MIC, Linezolid (A. baumannii [3]; [20]): 0 µg/mL; Antibiotic MIC, Vancomycin (A. baumannii [3]; [20]): 0 µg/mL; Antibiotic MIC, Erythromycin (A. baumannii [3]; [21]): 0 µg/mL; Antibiotic MIC, Linezolid (A. baumannii [3]; [21]): 0 µg/mL; Antibiotic MIC, Vancomycin (A. baumannii [3]; [21]): 0 µg/mL; Antibiotic MIC, Erythromycin (A. baumannii [3]; [22]): 0 µg/mL; Antibiotic MIC, Linezolid (A. baumannii [3]; [22]): 0 µg/mL; Antibiotic MIC, Vancomycin (A. baumannii [3]; [22]): 0 µg/mL; Minimal inhibitory concentration MIC (S. epidermidis): >128 µg/mL; Minimal inhibitory concentration MIC (E. coli [4]): 16 µg/mL (≈ 6.81 µM); Minimal inhibitory concentration MIC (MDREC 1229 [5]): 16 µg/mL (≈ 6.81 µM); Peptide MIC, peptide alone (MDREC 1229 [5]): 16 µg/mL; Minimal inhibitory concentration MIC (MDRST 8009): 16 µg/mL (≈ 6.81 µM); Minimal inhibitory concentration MIC (A. baumannii [6]): 16 µg/mL (≈ 6.81 µM); Peptide MIC, peptide alone (A. baumannii [6]): 16 µg/mL; Antibacterial activity relative to PapMA-1 (A. baumannii [6]; A. baumannii and S. typhimurium): at least twice as high; Minimal inhibitory concentration MIC (MDRAB 12035 [7]): 16 µg/mL (≈ 6.81 µM); Peptide MIC, peptide alone (MDRAB 12035 [7]): 16 µg/mL; Synergistic effect of antibacterial activity with existing antibiotics compared with PapMA-1 (E. coli [8]; E. coli and MDREC1229): higher level than the PapMA-1 peptide; Antibiotic MIC, Erythromycin (E. coli [8]; erythromycin combined with peptide at 1 μg/ml): 64 µg/mL; Antibiotic MIC, Erythromycin (E. coli [8]; erythromycin combined with peptide at 2 μg/ml): 16 µg/mL; Antibiotic MIC, Erythromycin (E. coli [8]; erythromycin combined with peptide at 4 μg/ml): 2 µg/mL; Antibiotic MIC, Erythromycin (E. coli [8]; erythromycin combined with peptide at 6 μg/ml): 1 µg/mL; Antibiotic MIC, Erythromycin (E. coli [8]; erythromycin combined with peptide at 8 μg/ml): 0.25 µg/mL; Antibiotic MIC, Erythromycin (E. coli [8]; erythromycin combined with peptide at 16 μg/ml): 0 µg/mL; Antibiotic MIC, Erythromycin (E. coli [8]; erythromycin combined with peptide at 32 μg/ml): 0 µg/mL; Antibiotic MIC, Erythromycin (E. coli [8]; erythromycin combined with peptide at 64 μg/ml): 0 µg/mL; Antibiotic MIC, Linezolid (E. coli [8]; linezolid combined with peptide at 1 μg/ml): >128 µg/mL; Antibiotic MIC, Linezolid (E. coli [8]; linezolid combined with peptide at 2 μg/ml): 64 µg/mL; Antibiotic MIC, Linezolid (E. coli [8]; linezolid combined with peptide at 4 μg/ml): 8 µg/mL; Antibiotic MIC, Linezolid (E. coli [8]; linezolid combined with peptide at 6 μg/ml): 4 µg/mL; Antibiotic MIC, Linezolid (E. coli [8]; linezolid combined with peptide at 8 μg/ml): 1 µg/mL; Antibiotic MIC, Linezolid (E. coli [8]; linezolid combined with peptide at 16 μg/ml): 0 µg/mL; Antibiotic MIC, Linezolid (E. coli [8]; linezolid combined with peptide at 32 μg/ml): 0 µg/mL; Antibiotic MIC, Linezolid (E. coli [8]; linezolid combined with peptide at 64 μg/ml): 0 µg/mL; Antibiotic MIC, Vancomycin (E. coli [8]; vancomycin combined with peptide at 1 μg/ml): >128 µg/mL; Antibiotic MIC, Vancomycin (E. coli [8]; vancomycin combined with peptide at 2 μg/ml): 64 µg/mL; Antibiotic MIC, Vancomycin (E. coli [8]; vancomycin combined with peptide at 4 μg/ml): 16 µg/mL; Antibiotic MIC, Vancomycin (E. coli [8]; vancomycin combined with peptide at 6 μg/ml): 8 µg/mL; Antibiotic MIC, Vancomycin (E. coli [8]; vancomycin combined with peptide at 8 μg/ml): 2 µg/mL; Antibiotic MIC, Vancomycin (E. coli [8]; vancomycin combined with peptide at 16 μg/ml): 0 µg/mL; Antibiotic MIC, Vancomycin (E. coli [8]; vancomycin combined with peptide at 32 μg/ml): 0 µg/mL; Antibiotic MIC, Vancomycin (E. coli [8]; vancomycin combined with peptide at 64 μg/ml): 0 µg/mL; Minimal inhibitory concentration MIC (P. aeruginosa): 128 µg/mL (≈ 54.5 µM); Peptide MIC during treatment with antibiotic (A. baumannii [9]; [23]): 4 µg/mL; Peptide MIC during treatment with antibiotic (A. baumannii [9]; [24]): 2 µg/mL; Peptide MIC during treatment with antibiotic (A. baumannii [9]; [25]): 1 µg/mL; Peptide MIC during treatment with antibiotic (A. baumannii [9]; [26]): 0 µg/mL; Peptide MIC during treatment with antibiotic (A. baumannii [9]; linezolid 32 μg/ml (Conc./MIC 1/8)): 2 µg/mL; Peptide MIC during treatment with antibiotic (A. baumannii [9]; linezolid 64 μg/ml (Conc./MIC 1/4)): 2 µg/mL; Peptide MIC during treatment with antibiotic (A. baumannii [9]; linezolid […] (Conc./MIC 1)): 0 µg/mL; Peptide MIC during treatment with antibiotic (A. baumannii [9]; linezolid […] (Conc./MIC 1/2)): 1 µg/mL; Peptide MIC during treatment with antibiotic (A. baumannii [9]; [13]): 0.25 µg/mL; Peptide MIC during treatment with antibiotic (A. baumannii [9]; [14]): 0 µg/mL; Peptide MIC during treatment with antibiotic (A. baumannii [9]; vancomycin […] (Conc./MIC 1/4)): 0.25 µg/mL; Peptide MIC during treatment with antibiotic (A. baumannii [9]; vancomycin […] (Conc./MIC 1/8)): 1 µg/mL; Peptide MIC during treatment with erythromycin (MDRAB 12035 [10]; [23]): 4 µg/mL; Peptide MIC during treatment with erythromycin (MDRAB 12035 [10]; [24]): 2 µg/mL; Peptide MIC during treatment with erythromycin (MDRAB 12035 [10]; [25]): 1 µg/mL; Peptide MIC during treatment with erythromycin (MDRAB 12035 [10]; [26]): 0 µg/mL; Peptide MIC during treatment with linezolid (MDRAB 12035 [10]; [11]): 2 µg/mL; Peptide MIC during treatment with linezolid (MDRAB 12035 [10]; [12]): 0 µg/mL; Peptide MIC during treatment with linezolid (MDRAB 12035 [10]; linezolid […] (Conc./MIC 1/2)): 1 µg/mL; Peptide MIC during treatment with linezolid (MDRAB 12035 [10]; linezolid […] (Conc./MIC 1/4)): 1 µg/mL; Peptide MIC during treatment with vancomycin (MDRAB 12035 [10]; [13]): 1 µg/mL; Peptide MIC during treatment with vancomycin (MDRAB 12035 [10]; [14]): 1 µg/mL; Peptide MIC during treatment with vancomycin (MDRAB 12035 [10]; vancomycin […] (Conc./MIC 1/4)): 1 µg/mL; Peptide MIC during treatment with vancomycin (MDRAB 12035 [10]; vancomycin […] (Conc./MIC 1/8)): 2 µg/mL; Minimal inhibitory concentration MIC (B. subtilis): >128 µg/mL; Minimal inhibitory concentration MIC (S. aureus): >128 µg/mL
